# Reference: patent US20230414839A1, “COATED MEDICAL PRODUCT” (HEMOTEQ AG, priority 2020, published 2023)
# Assays:
# [1] = cited from earlier work
# [2] = preparation and stability of crystal suspensions of microcrystalline rapamycin / everolimus in solutions of different tri-O-acylglycerols (Examples 2, 3); conditions: ethyl acetate/heptane solution; standing and temperature elevation
# From the text: In the first step, solutions of tri-O-acylglycerols were first prepared in a solvent mixture. Subsequently, the solutions were combined with microcrystals of rapamycin and everolimus to investigate which tri-O-acylglycerols could be used to obtain stable crystal suspensions. The composition of the solvents and solvent mixture varied depending on the active agent used. The solutions and solvent mixtures prepared in the example apply to rapamycin (SIR) and everolimus (EVR). For the preparation of the solutions, an ethyl acetate/heptane solvent mixture was used here as an example.
# To prepare the solutions, 770 mg of the respective tri-O-acylglycerol and optionally 150 mg BHT were dissolved in 14 g ethyl acetate (15.6 mL). Then, 57.4 g of n-heptane (84.4 mL) was added. Subsequently, homogenization and filtration were performed. The total volume of the solvent mixture is 100 mL.
# To a precisely weighed amount of dry microcrystals of the previously prepared limus active agent, a defined amount of the solutions containing tri-O-acylglycerol and optionally antioxidant is carefully added. It was investigated whether the microcrystals of the limus active agent are not soluble in the solutions and whether suspensions are formed.
# To check whether crystal suspension can be prepared, to each 200 mg of rapamycin in the form of microcrystals or 200 mg of everolimus in the form of microcrystals were carefully added 10 mL of one of the solutions 1a) to 1t) at room temperature. Three mixtures of 10 mL of solution for each solution were prepared. After combining, it was tested whether the microcrystals of limus active agents dissolved directly in the solutions. For solutions where there was no immediate dissolution of the microcrystals of the limus active agents, the suspensions of the solutions without antioxidant were allowed to stand for a period of 100 h and tested again to see if the microcrystals of the limus active agents dissolved.
# Three mixtures of 10 mL of solution for each solution were prepared. After combining, it was tested whether the microcrystals of limus active agents dissolved directly in these solutions. For solutions where there was no immediate dissolution of the microcrystals of the limus active agents, the suspensions of the solutions without antioxidant were allowed to stand for a period of 100 hours and tested again to see if the microcrystals of the limus active agents dissolved.
smiles,measurement,setting,value
"CCCCCCCCCCC(=O)OCC(COC(=O)CCCCCCCCCC)OC(=O)CCCCCCCCCC [Triundecanoylglycerol, 1,3-bis(undecanoyloxy)propan-2-yl-undecanoate]",solubility in water,[1],practically insoluble in water
same,stability of the crystal suspension of microcrystalline everolimus and rapamycin with the tri-O-acylglycerol,[2],remained stable after 24-48 hours and under temperature elevation
